Experimental findings from patent US12502369B2, “Methods of cancer treatment” (K-GEN, INC., priority 2015, dated 2025) are described below.

The EC50 is the concentration that produces a half-maximal response.

Entries after “also recorded” stand apart in the source; their conditions may differ. Read-outs that look alike come from different tables or passages of the source.

What all share (assay type): cell-based
For one experiment, the system named is H727. As to the kind of experiment: Proliferation assay (CellTiter Glo), H727. The conditions noted are these: for Top inhibition %: 96 hours. As for the experimental part: (§1) Briefly, cells at a density of 1,000-10,000 cells/well were seeded in 96-well plates and incubated at 37′C for 24 hours. A series of 9 different concentrations of compound stocks (500×) were created by 3-fold serial dilution in DMSO. These compounds were further diluted in culture media and then added to cells so that the final DMSO concentration was 0.2%. After 96 hours of incubation, 50 μL of CellTiter Glo reagent (Promega) was added to each well and luminescence was measured after 10 minutes using EnVision (PerkinElmer). […] The dose range for most compounds was 4.6 nM-30 μM. The dose ranges for some compounds were adjusted downward to 0.46 nM-3 μM or 0.08 nM-0.5 μM or 0.03 nM-0.2 μM. Luminescence from cells treated with […] alone was set as Max and % of inhibition was calculated as follows: Inhibition %=(Max-Sample value)/Max*100. Data was analyzed using XL-fit software (ID Business Solutions Ltd.) and EC50, relative EC50, and % of top inhibition were calculated. The results are shown in Tables 3-6 for pancreatic cancer, lung cancer, colon/gastric cancer, and leukemia cell lines.
Background: Cellular ATP, detected with luciferase, serves as a proxy for viable cell number.

Another experiment concerns CaMKii (Thr286). As to the kind of experiment: CaMKii phosphorylation in pancreatic cancer cell lines, Western blot. The conditions noted are these: Panc1 or Panc2.13 cells; 24 or 48 hours; K-101A 0.5 and 2.5 μM, K-102 0.1 and 0.5 μM. As for the experimental part:
Cells were lysed in a protein lysis buffer (1 ml of 10×TNE [20 mL 1M Tris pH7.5; 30 mL 5M NaCl; 2 mL 0.5M EDTA; 48 mL d2H2O], 1 ml of 10% NP40, 7.7 mL of dH2O, 100 μL of 10× Protease inhibitors, 100 μL of 10× Phosphatase inhibitors, and 10 μl DTT). Protein quantification, SDS-PAGE, and Western blot procedures were performed as described in Example 2. […] The effect was more apparent at 48 hours. Phospho-CaMKii (T286) is a marker for activation of CaMKii kinase in the Wnt/Ca^2′ signaling pathway when K-Ras and CaM are dissociated (Wang et al., 2015, Cell. 163(5):1237-51).
(In general: In western blotting, separated proteins are transferred to a membrane and probed.)

The next experiment concerns H838. As to the kind of experiment: Proliferation assay (CellTiter Glo), H838. The settings on record: H838 (WT K-ras). As for the experimental part:
as §1, with “calculated.” for “calculated. The results are shown in Tables 3-6 for pancreatic cancer, lung cancer, colon/gastric cancer, and leukemia cell lines.”
Other cancer cell lines having wild-type K-ras status and K-ras mutation at G12 were also screened using the PKC activator compounds. […] K-104 was tested in a range of 0.03 nM-0.2 μM. […] The dose ranges were adjusted downward to 0.46 nM-3 μM for K-102 and 0.08 nM-0.5 μM for K-103 for some cell lines.

A further experiment concerns KP-4. The experiment in a line: Proliferation assay (CellTiter Glo), KP-4. The conditions noted are these: for Top inhibition %: 96 hours. As for the experimental part:
as §1

For another experiment, the system named is Panc2.03. The experiment in a line: Proliferation assay (CellTiter Glo), Panc2.03. The conditions noted are these: for Top inhibition %: 96 hours. As for the experimental part:
as §1

For the next experiment, the system named is PKCδ. As to the kind of experiment: PKCδ Tyr311 phosphorylation in A549, HCT116, SW620, Panc02.13 cells, Western blot. The conditions noted are these: 30 minutes. As for the experimental part:
Non-cancerous lung fibroblast cell line HFL-1 or cancer cells (2-8 million cells) were seeded in 10 cm dishes and grown overnight so that the cells were about 40-80% confluent before treatment with the compound. Cells were then treated with different drugs at indicated concentrations (see descriptions for FIG. 11 and FIG. 12) for 30 minutes. Cell lysate preparation, protein quantitation, SDS-PAGE, and Western blotting procedures are described in Example 2 and 4. Primary antibodies used in this Example and later Examples of this application are shown in Table A. Secondary antibodies Anti-mouse IgG HRP conjugate or Anti-rabbit IgG HRP conjugate (dilutions from 1:2000-1:10000) were used. Western blot membranes were scanned using Imagequant LAS4000 (GE). The results are shown in FIG. 11A and FIG. 11B for HFL-1 cells and FIG. 11C and FIG. 12 for A549 cells.

Experiment [1] concerns PKC isoforms in Panc2.13 cells. As to the kind of experiment: Time course of activation of PKC isoforms in Panc2.13. The conditions noted are these: extended periods (16 h and 24 h). As for the experimental part: Cells of pancreatic cancer cell line Panc2.13 were seeded as described above, and the cell confluence was between 40-80% the next day. […] Phosphorylation at multiple PKC isoforms, such as Ser744/748 or Ser916 for PKCμ, phosphorylation at Thr638/641 for PKCα/β, phosphorylation at Ser660 for PKCβII (pan-PKC), phosphorylation at Ser643/676 for PKCδ/θ, and phosphorylation at Thr505 for PKCδ, were detected.

Another experiment deals with Capan-1. As to the kind of experiment: Proliferation assay (CellTiter Glo), Capan-1. The conditions noted are these: for Top inhibition %: 96 hours. As for the experimental part:
as §1

Setting [2] is: Homo sapiens, absolute EC50, 96 hours, read-out: Ab EC50.
Where [3] appears, read: Homo sapiens, relative EC50, 96 hours, read-out: Re EC50.
Setting [4] is: absolute EC50, 96 hours, read-out: Ab EC50.
Where [5] appears, read: relative EC50, 96 hours, read-out: Re EC50.

Turning to `CC(=O)O[C@@]12C[C@@H](C)[C@]3(O)C4C=C(C)C(=O)[C@@]4(O)CC(CO)=C[C@H]3[C@@H]1C2(C)C` (some centres unmarked) [Compound K-101A, Prostratin], the Top inhibition % is listed as 48.3% with H727; 10.1% in the experiment on H838; 63.3% with KP-4; 27.0% in the experiment on Panc2.03; 37.1% in the experiment on Capan-1. The EC50 was above 30000 nM with H727 (Homo sapiens, NCI-H727, absolute EC50, 96 hours, read-out: Ab EC50); 190 nM in the experiment with H727 (Homo sapiens, NCI-H727, relative EC50, 96 hours, read-out: Re EC50); 400 nM in the experiment on KP-4 (setting [2]); 190 nM in the experiment on KP-4 (setting [3]); above 30000 nM with Panc2.03 (Homo sapiens, Panc203, absolute EC50, 96 hours, read-out: Ab EC50); 120 nM with Panc2.03 (Homo sapiens, Panc203, relative EC50, 96 hours, read-out: Re EC50). Moreover, the figures for the EC50 in the experiment on Capan-1 (setting [2]) and with Capan-1 (setting [3]) were above 30000 nM and 310 nM, respectively. Further, the “phosphorylation on CaMKii at Thr286” value with CaMKii (Thr286) was “induced phosphorylation”. Also, the “PKCδ activation, phosphorylation at Tyr311” value in the experiment on PKCδ was “observed for cell lines HCT116 and SW620 but not as significantly for cell lines A549 and Pan 02,13; also recorded: observed for cell lines HCT116 and SW620 but not as significantly for cell lines A549 and Panc02.13”. For the same molecule, in experiment [1] (K101A 1 μM versus K102, K103), the “reducing the phosphorylation at Ser643/676 of PKCδ/θ” value is “more potent”.
Consider `CC(=O)OCC1=C[C@H]2[C@@H]3C(C)(C)[C@]3(OC(C)=O)C[C@@H](C)[C@]2(O)C2C=C(C)C(=O)[C@@]2(O)C1` (some centres unmarked) [Compound K-101E], for which the Top inhibition % in the experiment on H727 is listed as 49.1%; with H838, 26.8%; in the experiment with KP-4 it was 69.1%; with Panc2.03 it was 36.5%; with Capan-1, 44.6%. Further, the EC50 is above 30000 nM in the experiment on H727 (setting [4]); 620 nM with H727 (setting [5]); 1280 nM in the experiment on KP-4 (setting [4]); 680 nM in the experiment with KP-4 (setting [5]); above 30000 nM with Panc2.03 (setting [4]); 1920 nM in the experiment on Panc2.03 (setting [5]). Also, the values for the EC50 in the experiment with Capan-1 (setting [4]) and in the experiment on Capan-1 (setting [5]) were above 30000 nM and 830 nM, respectively.
On to `C/C=C(/C)C(=O)O[C@H]1C(C)=C[C@]23C(=O)[C@@H](C=C(CO)[C@@H](O)[C@]12O)[C@H]1[C@@H](C[C@H]3C)C1(C)C` [Compound K-102, Ingenol-3-angelate, reference compound], for which the “phosphorylation on CaMKii at Thr286” value in the experiment with CaMKii (Thr286) is given as “induced phosphorylation”. In addition, in the experiment on PKCδ, the “PKCδ activation, phosphorylation at Tyr311” value is “observed for PKC activator insensitive cell lines HCT116 and SW620 but not as significantly for sensitive cell lines A549 and Pan 02,13; also recorded: observed for cell lines HCT116 and SW620 but not as significantly for cell lines A549 and Panc02.13”. Also, in experiment [1] (K102 0.1 μM, K103 0.01 μM versus K101A), the “reducing the phosphorylation at βII Ser660 of PKC (pan), to a lesser extent Thr638/641 of PKCα/β” value is “more potent”.
